Test results as given in publication PMC12305494, “Discovery of PXR Antagonist MI891 and PXR Degrader MI1013 and Their Roles in Hepatic Gene Regulation” (Journal of Medicinal Chemistry, 2025).

Key:
[1] = target: T1, farnesoid X receptor (FXR) (Homo sapiens, UniProt Q96RI1); assay: FXR luciferase reporter assay, agonistic and antagonistic setups; assay type: cell-based; conditions: prototype ligand 6-OCA
T1 construct: the full-length expression vector was paired with pFXRE-luc luciferase construct; expressed in transfected cells
Protocol: (§1) For the farnesoid X receptor (FXR) luciferase gene reporter assay, the full-length expression vector was paired with pFXRE-luc luciferase construct. The p1A1-luc construct was used in the aryl hydrocarbon receptor (AhR) assays with pRL-TK for normalization. Gal4-LXR-α/β, and Gal4-PPAR-γ constructs were used with the pGAL4 UAS-luc construct. For the VDR assay, expression vector pSG5-hVDR together with pVDRE-luc constructs was used. Firefly and Renilla luciferase activities were analyzed using a Dual reporter assay (Promega). For the nuclear receptor assays, prototype ligands were used at the following concentrations: Calcitriol for VDR (100 nM), GW3965 for LXRα and LXRβ (10 μM), 6-OCA for FXR (1 μM), fenofibrate for PPARα (10 μM), estradiol for ERα and β (10 μM), rosiglitazone for PPARγ (10 μM), 3-MC for AhR (5 μM), and TCPOBOP for mCAR (10 μM). Detailed descriptions and protocols are detailed in our recent publication. ,

PXR [2] = target: T2, PXR (Homo sapiens, UniProt O75469); assay: PXR-responsive CYP3A4 promoter luciferase reporter assay in HepG2, inverse agonist mode (basal activity); assay type: cell-based; set-up: expressed in transfected cells; host or cells: HepG2; conditions: for PXR inverse agonism: decrease of basal activity in %: tested at 10 μM, DMSO (0.1%) = 100% basal activity
T2 sequence (O75469 1-434): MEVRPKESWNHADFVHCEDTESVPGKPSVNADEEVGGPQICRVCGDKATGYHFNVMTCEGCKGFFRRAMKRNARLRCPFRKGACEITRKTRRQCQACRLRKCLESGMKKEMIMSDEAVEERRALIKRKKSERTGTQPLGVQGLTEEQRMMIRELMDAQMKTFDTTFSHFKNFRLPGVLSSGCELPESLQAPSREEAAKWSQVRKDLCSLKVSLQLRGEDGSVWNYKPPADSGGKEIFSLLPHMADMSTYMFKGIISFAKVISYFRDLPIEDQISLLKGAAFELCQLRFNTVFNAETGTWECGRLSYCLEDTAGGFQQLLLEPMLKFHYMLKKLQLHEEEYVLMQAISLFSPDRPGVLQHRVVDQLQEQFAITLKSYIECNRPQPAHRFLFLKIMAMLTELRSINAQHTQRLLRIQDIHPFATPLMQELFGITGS
Protocol: Rhesus monkey, mouse, and rat PXR expression vectors (100 ng/well each) were also obtained from GenScript. […] Carlberg (University of Kuopio, Kuopio, Finland).
The cells were cultured in DMEM medium (Merck) supplemented with 10% fetal bovine serum.

human CAR LBD = target: T3, human CAR LBD (Homo sapiens, UniProt Q14994); assay: CAR LBD assembly assay (CAR AA); assay type: cell-based
T3 construct: constructs encoding helices 3–12 and helix 1 of human CAR LBD; expressed in transfected cells; host or cells: HepG2
T3 sequence (Q14994 103-150 isoform Q14994-2 limits assumed): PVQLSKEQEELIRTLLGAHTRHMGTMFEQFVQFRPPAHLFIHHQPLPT
T3 sequence (Q14994 151-348 isoform Q14994-2 limits assumed): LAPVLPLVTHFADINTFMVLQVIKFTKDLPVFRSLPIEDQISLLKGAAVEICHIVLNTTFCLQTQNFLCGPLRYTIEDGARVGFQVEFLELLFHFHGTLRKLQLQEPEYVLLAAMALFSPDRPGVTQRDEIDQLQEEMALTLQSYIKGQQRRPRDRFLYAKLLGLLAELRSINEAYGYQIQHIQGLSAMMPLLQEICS
Text: The CAR LBD assembly assay used constructs encoding helices 3–12 and helix 1 of human CAR LBD as described before. GL4.31[luc2P/GAL4UAS/Hygro] (pGAL4 UAS-luc) luciferase reporter vector and pRL-TK Renilla expression vector (Promega) were used in the assay in HepG2 cells transfected using Lipofectamine 3000.

LXRα = target: T4, LXRα (Homo sapiens, UniProt Q13133); assay: LXRα luciferase reporter assay, agonistic and antagonistic setups; assay type: cell-based; conditions: prototype ligand GW3965
T4 construct: expressed in transfected cells
Protocol: as §1

PXR [3] = target: T2, PXR; conditions: HepG2, rifampicin 1 or 5 μM
Protocol: The PXR activity was assessed as the PXR-dependent transcriptional activation using the construct. […] The control vector pRL-TK (Promega) constitutively expresses Renilla luciferase. […] Transient transfection experiments followed published protocols used in our laboratory and described before. , Luciferase reporter assays were conducted to evaluate interactions with PXR or CAR and their variants in HepG2, or COS-1. Cells were seeded at a density of 40,000 cells/cm^2 in 48-well plates (ThermoFisher Scientific) and maintained at 37 °C in a humidified atmosphere with 5% CO2. […] Following seeding, HepG2 cells were transfected with 150 ng/well of a luciferase reporter construct and 100 ng/well of a nuclear receptor expression vector using Lipofectamine 3000 (ThermoFisher Scientific) and with pRL-TK (30 ng/well) serving as the normalization control. After 24 h, cells were treated with test compounds for 24 h before cell lysis and subsequent firefly and Renilla luciferase activity analysis using the Dual-Glo Luciferase Assay System (Promega). […] The activities of test compounds were normalized to the respective controls to determine % activation or inhibition.

PXR [4] = target: T5, PXR (Homo sapiens, UniProt O75469+Q96SW2); assay: Western blot of PXR in differentiated HepaRG cells; assay type: cell-based
T5 construct: differentiated hepatic HepaRG cells, which naturally express high PXR activity and expression; endogenous in cells; host or cells: differentiated HepaRG
Protocol: (§2) The harvested HepaRG cells were lysed in RIPA lysis buffer (Cat. no 89900, Thermo Scientific) containing Halt protease inhibitor cocktail inhibitors (Thermo Scientific). Protein concentration was measured using the Pierce BCA Protein Assay Kit (Cat. no. 23225, Thermo Scientific), samples were diluted in 4 × Laemmli sample buffer (Cat. no. 1610747, BioRad) supplemented with mercaptoethanol and heated at 95 °C for 5 min. Equal amounts of protein were loaded in 4–20% Mini-PROTEAN TGX Stain-Free Protein Gels (12 well. cat. no. 4561095 or 15 well, cat. no. 4568096, Bio-Rad), electrophorised, and transferred onto Trans-Blot Turbo Midi-size PVDF Membrane (cat. no. 1704273, Bio-Rad), and blocked with EveryBlot Blocking buffer for 10 min (cat. no. 12010020, Bio-Rad). The membranes were incubated overnight at 4 °C with the following antibodies: PXR polyclonal antibody (1:500, PA5–41170, Invitrogen), RXRA polyclonal antibody (1:1000, 21218–1-AP, Proteintech), and GSPT1 polyclonal antibody (1:1000, 10763-a-AP, Proteintech), washed with TBS-T for 3 times, and followed by incubation with goat antirabbit IgG (H + L) Secondary antibody, HRP (1:200, 000, 1 h, cat. no. 31460, Invitrogen). Chemiluminescence signals were detected using SuperSignal West Femto Maximum Sensitivity Substrate (cat. no. 34096, Thermo Scientific) and visualized by the ChemiDoc MP Imaging system (Universal Hood III, #731BR02821, Bio-Rad), and the bands were quantified using β-actin (1:2000, recombinant rabbit conjugated monoclonal antibody (JF53-10), cat. no. MA5-32540, Invitrogen) as loading control with ImageJ (version 1.54g) software.

GSPT1 = target: T6, GSPT1 (Homo sapiens, UniProt P15170); assay: Western blot of GSPT1 in HepaRG cells; assay type: cell-based; conditions: 24 h
T6 construct: GSPT1 protein expression in HepaRG cells treated with different concentrations of MI1013 and MI1155 for 24 h; endogenous in cells; host or cells: HepaRG
Protocol: as §2, with “The membranes were incubated overnight at 4 °C with the following antibodies: PXR polyclonal antibody (1:500, PA5–41170, Invitrogen), RXRA polyclonal antibody (1:1000, 21218–1-AP, Proteintech), and GSPT1 polyclonal antibody (1:1000, 10763-a-AP, Proteintech), washed with TBS-T for 3 times, and followed by incubation with goat antirabbit IgG (H + L) Secondary antibody, HRP (1:200, 000, 1 h, cat. no. 31460, Invitrogen).” left out

T5 sequence (Q96SW2 whole entry, one chain of several): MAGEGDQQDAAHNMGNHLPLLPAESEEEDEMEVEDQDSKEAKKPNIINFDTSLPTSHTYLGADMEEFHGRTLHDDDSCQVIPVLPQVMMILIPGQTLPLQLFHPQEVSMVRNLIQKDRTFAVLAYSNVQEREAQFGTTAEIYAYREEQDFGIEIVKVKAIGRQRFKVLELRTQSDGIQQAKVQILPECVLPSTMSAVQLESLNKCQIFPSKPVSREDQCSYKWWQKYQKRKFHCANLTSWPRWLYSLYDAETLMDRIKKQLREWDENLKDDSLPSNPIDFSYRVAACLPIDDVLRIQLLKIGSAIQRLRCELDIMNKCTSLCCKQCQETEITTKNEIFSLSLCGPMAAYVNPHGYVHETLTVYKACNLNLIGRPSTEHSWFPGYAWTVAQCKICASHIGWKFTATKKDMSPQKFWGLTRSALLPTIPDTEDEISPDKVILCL
T1 sequence (Q96RI1 whole entry): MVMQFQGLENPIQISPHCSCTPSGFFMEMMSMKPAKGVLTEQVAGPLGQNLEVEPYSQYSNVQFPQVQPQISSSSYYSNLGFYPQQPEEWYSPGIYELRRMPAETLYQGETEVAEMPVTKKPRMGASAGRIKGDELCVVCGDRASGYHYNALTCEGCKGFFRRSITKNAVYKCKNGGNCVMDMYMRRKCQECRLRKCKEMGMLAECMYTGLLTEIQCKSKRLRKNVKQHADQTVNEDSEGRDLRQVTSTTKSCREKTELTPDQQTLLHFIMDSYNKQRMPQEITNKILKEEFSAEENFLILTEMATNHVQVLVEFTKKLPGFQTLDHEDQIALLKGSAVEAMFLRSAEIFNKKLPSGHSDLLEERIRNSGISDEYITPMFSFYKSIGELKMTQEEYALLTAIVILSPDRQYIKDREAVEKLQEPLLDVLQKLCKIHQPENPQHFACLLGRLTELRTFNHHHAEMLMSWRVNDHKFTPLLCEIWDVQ
T6 sequence (Q96SW2 whole entry partner): as the sequence (Q96SW2 whole entry, one chain of several) above
T6 sequence (P15170 whole entry): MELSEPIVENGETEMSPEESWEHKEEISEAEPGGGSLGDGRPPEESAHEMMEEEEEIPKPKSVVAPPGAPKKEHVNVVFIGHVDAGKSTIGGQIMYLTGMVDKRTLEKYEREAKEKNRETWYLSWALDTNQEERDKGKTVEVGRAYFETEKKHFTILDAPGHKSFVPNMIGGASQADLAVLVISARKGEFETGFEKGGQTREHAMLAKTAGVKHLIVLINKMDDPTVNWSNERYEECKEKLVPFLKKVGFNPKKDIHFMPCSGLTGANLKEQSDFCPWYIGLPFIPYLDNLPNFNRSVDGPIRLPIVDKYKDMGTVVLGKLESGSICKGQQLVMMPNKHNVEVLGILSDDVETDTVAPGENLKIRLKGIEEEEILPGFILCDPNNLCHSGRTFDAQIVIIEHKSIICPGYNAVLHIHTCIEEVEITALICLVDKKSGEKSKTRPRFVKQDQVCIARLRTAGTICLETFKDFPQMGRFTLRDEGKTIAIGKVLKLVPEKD
T4 sequence (Q13133 209-447 limits assumed): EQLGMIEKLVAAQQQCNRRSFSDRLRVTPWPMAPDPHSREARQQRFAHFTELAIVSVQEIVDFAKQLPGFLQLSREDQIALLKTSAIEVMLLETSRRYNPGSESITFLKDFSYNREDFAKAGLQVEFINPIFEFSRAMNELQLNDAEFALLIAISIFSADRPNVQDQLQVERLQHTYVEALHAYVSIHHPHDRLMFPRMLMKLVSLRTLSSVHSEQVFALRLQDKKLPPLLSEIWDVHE

Row | inhibition at 10 µM (PXR [2]; HepG2, at 10 μM, read-out: maximal inhibition (inverse agonism)) | IC50 (PXR [2]; compound alone, HepG2, read-out: IC50, inverse agonistic activity) | PXR inverse agonism: decrease of basal activity in % (PXR [2]) | PXR inverse agonism: decrease of basal activity in % (PXR [2]; listed as 11 (MI891)) | PXR degradation (Western blot) (PXR [4]; 24 h) | PXR degradation Dmax (PXR [4]; 24 h, Western blot) | DC50 (PXR [4]; 24 h, Western blot, read-out: PXR degradation DC50) | GSPT1 degradation (GSPT1) | Molecule | agonistic or antagonistic activity on FXR [1] | activation of CAR LBD assembly (human CAR LBD; at 10 μM concentration) | EC50 (human CAR LBD; na = no activity, tox = cytotoxicity in HepG2 cells) | agonistic or antagonistic activity on LXRα (LXRα) | inhibition of PXR activation by rifampicin (PXR [3]) | PXR degradation, time course (PXR [4]; 2 μM, reversal of PXR expression after 72 h)
1 | 68.8 ± 5.5% | 6.1 µM | (-68.84±5.53) % | –68.84 ± 5.53% | – | – | – | – | NC(=O)c1cc(Cn2cc(-c3c(-c4ccc(Cl)cc4)nc4c(F)cc(F)cn34)nn2)ccc1Cl [Compound 11, 2-Chloro-5-((4-(2-(4-chlorophenyl)-6,8-difluoroimidazo[1,2-a]pyridin-3-yl)-1H-1,2,3-triazol-1-yl)methyl)-benzamide] | no significant agonistic or antagonistic activities | lack of significant (p value 0.07) activation | > 10 µM | no significant agonistic or antagonistic activities | – | –
2 | – | – | – | – | selectively degrades PXR | 82% | 0.089 µM | does not degrade | N-(4-((1-(2,5-dimethoxyphenyl)-5-methyl-1H-1,2,3-triazol-4-yl)sulfonyl)phenyl)-3-(2-(2-(2-(4-(((2-(2,6-dioxopiperidin-3-yl)-1,3-dioxoisoindolin-4-yl)amino)methyl)-1H-1,2,3-triazol-1-yl)ethoxy)ethoxy)ethoxy)propenamide [Compound 36] | – | – | – | – | concentration-dependent inhibition of PXR activation by rifampicin | significant degradation of PXR after 12 h
